Source: US9901582B2, “Polymorphisms in ABCB1 associated with a lack of clinical response to medicaments” (Max-Planck-Gesellschaft zur Förderung der Wisenschaften e. …, priority 2007, dated 2018)
Like-named read-outs stand apart in the source and are kept apart here.

What was measured:
P-gp [1] = conditions: after single administration, same mouse model; cited from earlier work
ABCB1 = ABCB1 (Homo sapiens, UniProt P08183); conditions: cited from earlier work; for Inducer: inducer of ABCB1
P-gp [2] = conditions: mouse
ABCB1 gene = conditions: human, in vivo
Experimental: The antidepressant plasma concentration was monitored to assure clinically efficient drug levels.
To this end, we created the residuals of linear regression with the dependent variable drug dose or plasma concentration and the independent variables age and gender. These residuals and SNP genotyping data were tested in an ANOVA analysis for statistical differences between the genotypes. Empiric p-values were calculated by applying 10^6 permutations (residuals randomly redistributed over the genotypes). Fisher's product method (FPM) includes the residuals of the dose or plasma concentration variables and the genotype variables from the SNPs rs2235067, rs4148740, rs2032583, rs4148739, rs11983225, rs2235040, rs12720067, rs7787082, rs10248420, rs10280101 and rs2235015.

P-gp [3] = test: Organ and plasma concentrations of antidepressants in abcb1ab(−/−) knockout mice versus FVB/N wild-type controls (blood-organ barrier function); conditions: for brain concentrations, times higher in the mutant mice compared to wild-type littermates: 11 days, s.c. osmotic infusion pumps; for cerebrum concentration, abcb1ab (−/−) / kidney concentration, abcb1ab (−/−) / liver concentration, abcb1ab (−/−) / lung concentration, abcb1ab (−/−) / plasma concentration, abcb1ab (−/−) / spleen concentration, abcb1ab (−/−) / testes concentration, abcb1ab (−/−): abcb1ab(−/−) mice; for cerebrum concentration, abcb1ab (−/−) / kidney concentration, abcb1ab (−/−) / liver concentration, abcb1ab (−/−) / lung concentration, abcb1ab (−/−) / plasma concentration, abcb1ab (−/−) / spleen concentration, abcb1ab (−/−) / testes concentration, abcb1ab (−/−) / cerebrum concentration, control / kidney concentration, control / liver concentration, control / lung concentration, control / plasma concentration, control / spleen concentration, control / testes concentration, control: after 11 days s.c. via osmotic pumps; for penetration into the brain (organ/plasma concentration ratio), times higher in animals lacking P-gp than in control animals / ratio (−/−)/(+/+), cerebrum / ratio (−/−)/(+/+), kidney / ratio (−/−)/(+/+), liver / ratio (−/−)/(+/+), lung / ratio (−/−)/(+/+), plasma / ratio (−/−)/(+/+), spleen / ratio (−/−)/(+/+), testes / differences in testes/plasma ratio between knockout and control: 11 days s.c.; for penetration into the brain (organ/plasma concentration ratio), times higher in animals lacking P-gp than in control animals / differences in testes/plasma ratio between knockout and control: FIG. 1; for ratio (−/−)/(+/+), cerebrum: cerebrum concentration; for ratio (−/−)/(+/+), cerebrum / ratio (−/−)/(+/+), kidney / ratio (−/−)/(+/+), liver / ratio (−/−)/(+/+), lung / ratio (−/−)/(+/+), plasma / ratio (−/−)/(+/+), spleen / ratio (−/−)/(+/+), testes: knockout/control; for ratio (−/−)/(+/+), kidney: kidney concentration; for ratio (−/−)/(+/+), liver: liver concentration; for ratio (−/−)/(+/+), lung: lung concentration; for ratio (−/−)/(+/+), plasma: plasma concentration; for ratio (−/−)/(+/+), spleen: spleen concentration; for ratio (−/−)/(+/+), testes: testes concentration; for cerebrum concentration, control / kidney concentration, control / liver concentration, control / lung concentration, control / plasma concentration, control / spleen concentration, control / testes concentration, control: wild-type control mice
[4] = male, FVB/N wild-type, in vivo, sc, 11 days
[5] = male, abcb1ab(−/−) on FVB/N background versus FVB/N wild-type, in vivo, sc, 11 days
[6] = male, abcb1ab(−/−) on FVB/N background, in vivo, sc, 11 days

Sequence of ABCB1 (P08183 whole entry): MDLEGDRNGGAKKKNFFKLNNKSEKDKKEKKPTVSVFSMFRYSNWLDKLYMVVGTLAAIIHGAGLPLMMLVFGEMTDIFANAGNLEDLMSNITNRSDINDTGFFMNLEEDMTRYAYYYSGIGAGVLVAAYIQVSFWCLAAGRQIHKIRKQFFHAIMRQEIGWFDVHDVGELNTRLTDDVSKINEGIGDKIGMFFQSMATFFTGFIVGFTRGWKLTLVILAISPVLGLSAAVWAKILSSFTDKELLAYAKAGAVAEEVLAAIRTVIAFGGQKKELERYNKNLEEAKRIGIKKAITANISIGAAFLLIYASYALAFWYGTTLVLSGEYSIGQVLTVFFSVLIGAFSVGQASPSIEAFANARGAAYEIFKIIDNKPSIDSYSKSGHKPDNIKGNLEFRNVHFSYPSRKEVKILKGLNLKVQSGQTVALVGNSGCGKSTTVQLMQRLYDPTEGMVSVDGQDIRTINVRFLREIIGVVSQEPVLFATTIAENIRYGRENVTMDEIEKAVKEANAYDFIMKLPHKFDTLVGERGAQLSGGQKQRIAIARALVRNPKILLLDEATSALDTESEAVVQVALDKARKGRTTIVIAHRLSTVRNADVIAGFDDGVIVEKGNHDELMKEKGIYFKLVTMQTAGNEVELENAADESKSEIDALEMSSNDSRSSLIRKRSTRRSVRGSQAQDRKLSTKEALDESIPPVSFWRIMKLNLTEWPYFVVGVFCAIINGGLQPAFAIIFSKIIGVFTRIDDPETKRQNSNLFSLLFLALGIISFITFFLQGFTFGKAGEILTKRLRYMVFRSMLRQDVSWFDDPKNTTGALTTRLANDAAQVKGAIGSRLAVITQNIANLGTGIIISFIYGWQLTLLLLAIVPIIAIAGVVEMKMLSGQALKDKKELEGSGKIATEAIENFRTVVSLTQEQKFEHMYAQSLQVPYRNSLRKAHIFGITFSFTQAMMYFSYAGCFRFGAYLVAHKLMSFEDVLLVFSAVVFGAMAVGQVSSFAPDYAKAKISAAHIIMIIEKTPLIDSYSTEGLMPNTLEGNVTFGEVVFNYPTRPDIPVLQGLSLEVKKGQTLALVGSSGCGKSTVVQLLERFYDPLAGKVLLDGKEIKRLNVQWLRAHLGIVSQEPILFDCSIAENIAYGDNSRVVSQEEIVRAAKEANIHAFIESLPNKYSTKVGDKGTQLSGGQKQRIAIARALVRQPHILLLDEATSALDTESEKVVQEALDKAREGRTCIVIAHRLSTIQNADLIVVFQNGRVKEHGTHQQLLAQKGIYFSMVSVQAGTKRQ

CN(C)CCC=C1c2ccccc2CCc2ccccc21 [Amitriptyline]
P-gp substrate status at the blood-brain barrier, earlier studies (P-gp [1]): substrates of P-gp at the blood-brain barrier

CCN(CC)CCCC(C)Nc1ccnc2cc(Cl)ccc12 (centres unmarked) [Chloroquine]
Inhibitor (ABCB1; inhibitor of ABCB1): (x)

CN(C)CCCC1(c2ccc(F)cc2)OCc2cc(C#N)ccc21 (centres unmarked) [Citalopram]
P-gp substrate status at the blood-brain barrier, earlier studies (P-gp [1]): substrates of P-gp at the blood-brain barrier | cerebrum concentration, control (P-gp [2]; [4]): 158.27 ng/g or ml | kidney concentration, control (P-gp [2]; [4]): 962.29 ng/g or ml | liver concentration, control (P-gp [2]; [4]): 238.02 ng/g or ml | lung concentration, control (P-gp [2]; [4]): 1238.71 ng/g or ml | plasma concentration, control (P-gp [2]; [4]): 106.71 ng/g or ml | spleen concentration, control (P-gp [2]; [4]): 446.96 ng/g or ml | testes concentration, control (P-gp [2]; [4]): 428.19 ng/g or ml | brain concentrations, times higher in the mutant mice compared to wild-type littermates (P-gp [2]; [5]): 3.0 times | cerebrum concentration, abcb1ab (−/−) (P-gp [2]; [6]): 480.93 ng/g or ml | kidney concentration, abcb1ab (−/−) (P-gp [2]; [6]): 795.74 ng/g or ml | liver concentration, abcb1ab (−/−) (P-gp [2]; [6]): 240.33 ng/g or ml | lung concentration, abcb1ab (−/−) (P-gp [2]; [6]): 1238.47 ng/g or ml | plasma concentration, abcb1ab (−/−) (P-gp [2]; [6]): 89.37 ng/g or ml | spleen concentration, abcb1ab (−/−) (P-gp [2]; [6]): 468.29 ng/g or ml | testes concentration, abcb1ab (−/−) (P-gp [2]; [6]): 687.92 ng/g or ml | P-gp substrate status at the BBB (P-gp [2]): substrates of P-gp at the BBB | genotype-dependent differences in plasma levels of patients (ABCB1 gene): small significant difference

CN(C)CC(c1ccc(O)cc1)C1(O)CCCCC1 [D-Venlafaxine, O-desmethyl venlafaxine]
brain concentrations, times higher in the mutant mice compared to wild-type littermates (P-gp [3]): 4.1 times | cerebrum concentration, abcb1ab (−/−) (P-gp [3]): 36.99 ng/g or ml | kidney concentration, abcb1ab (−/−) (P-gp [3]): 127.32 ng/g or ml | liver concentration, abcb1ab (−/−) (P-gp [3]): 88.22 ng/g or ml | lung concentration, abcb1ab (−/−) (P-gp [3]): 44.91 ng/g or ml | plasma concentration, abcb1ab (−/−) (P-gp [3]): 5.98 ng/g or ml | spleen concentration, abcb1ab (−/−) (P-gp [3]): 33.80 ng/g or ml | testes concentration, abcb1ab (−/−) (P-gp [3]): 39.19 ng/g or ml | penetration into the brain (organ/plasma concentration ratio), times higher in animals lacking P-gp than in control animals (P-gp [3]): 3.6 times | ratio (−/−)/(+/+), cerebrum (P-gp [3]): 4.1 | ratio (−/−)/(+/+), kidney (P-gp [3]): 1.2 | ratio (−/−)/(+/+), liver (P-gp [3]): 1.1 | ratio (−/−)/(+/+), lung (P-gp [3]): 0.9 | ratio (−/−)/(+/+), plasma (P-gp [3]): 1.1 | ratio (−/−)/(+/+), spleen (P-gp [3]): 1.1 | ratio (−/−)/(+/+), testes (P-gp [3]): 1.3 | differences in testes/plasma ratio between knockout and control (P-gp [3]): smaller but still significant differences | cerebrum concentration, control (P-gp [3]): 8.97 ng/g or ml | kidney concentration, control (P-gp [3]): 107.88 ng/g or ml | liver concentration, control (P-gp [3]): 83.15 ng/g or ml | lung concentration, control (P-gp [3]): 50.63 ng/g or ml | plasma concentration, control (P-gp [3]): 5.50 ng/g or ml | spleen concentration, control (P-gp [3]): 29.42 ng/g or ml | testes concentration, control (P-gp [3]): 30.18 ng/g or ml

O=C(CCCN1CCC(O)(c2ccc(Cl)cc2)CC1)c1ccc(F)cc1 [Haloperidol]
Inhibitor (ABCB1; inhibitor of ABCB1): (x)

Cc1ncc2n1-c1ccc(Cl)cc1C(c1ccccc1F)=NC2 [Midazolam]
Inhibitor (ABCB1): (x)

CN1CCN2c3ncccc3Cc3ccccc3C2C1 (centres unmarked) [Mirtazapine]
cerebrum concentration, control (P-gp [2]; [4]): 34.90 ng/g or ml | intestine concentration, control (P-gp [2]; [4]): 19.96 ng/g or ml | kidney concentration, control (P-gp [2]; [4]): 70.93 ng/g or ml | liver concentration, control (P-gp [2]; [4]): 12.39 ng/g or ml | lung concentration, control (P-gp [2]; [4]): 61.47 ng/g or ml | plasma concentration, control (P-gp [2]; [4]): 7.66 ng/g or ml | spleen concentration, control (P-gp [2]; [4]): 67.54 ng/g or ml | testes concentration, control (P-gp [2]; [4]): 61.22 ng/g or ml | ratio (−/−)/(+/+), cerebrum (P-gp [2]; [5]): 1.5 | ratio (−/−)/(+/+), intestine (P-gp [2]; [5]): 1.2 | ratio (−/−)/(+/+), kidney (P-gp [2]; [5]): 1.3 | ratio (−/−)/(+/+), liver (P-gp [2]; [5]): 1.7 | ratio (−/−)/(+/+), lung (P-gp [2]; [5]): 1.7 | ratio (−/−)/(+/+), plasma (P-gp [2]; [5]): 1.5 | ratio (−/−)/(+/+), spleen (P-gp [2]; [5]): 1.3 | ratio (−/−)/(+/+), testes (P-gp [2]; [5]): 1.8 | cerebrum concentration, abcb1ab (−/−) (P-gp [2]; [6]): 51.31 ng/g or ml | intestine concentration, abcb1ab (−/−) (P-gp [2]; [6]): 24.58 ng/g or ml | kidney concentration, abcb1ab (−/−) (P-gp [2]; [6]): 91.22 ng/g or ml | liver concentration, abcb1ab (−/−) (P-gp [2]; [6]): 20.59 ng/g or ml | lung concentration, abcb1ab (−/−) (P-gp [2]; [6]): 105.36 ng/g or ml | plasma concentration, abcb1ab (−/−) (P-gp [2]; [6]): 11.17 ng/g or ml | spleen concentration, abcb1ab (−/−) (P-gp [2]; [6]): 86.19 ng/g or ml | testes concentration, abcb1ab (−/−) (P-gp [2]; [6]): 110.29 ng/g or ml | P-gp substrate status at the BBB (P-gp [2]): not influenced by P-gp | differences in testes/plasma ratio between knockout and control (P-gp [2]; in vivo, sc): not

CCc1nn(CCCN2CCN(c3cccc(Cl)c3)CC2)c(=O)n1CCOc1ccccc1 [Nefazodone]
Inducer (ABCB1): (x)

Fc1ccc([C@@H]2CCNC[C@H]2COc2ccc3c(c2)OCO3)cc1 [Paroxetine]
P-gp substrate status at the blood-brain barrier, earlier studies (P-gp [1]): substrates of P-gp at the blood-brain barrier

O=c1n(CCCN2CCN(c3cccc(Cl)c3)CC2)nc2ccccn12 [Trazodone]
Inducer (ABCB1): (x)

COc1ccc(C(CN(C)C)C2(O)CCCCC2)cc1 (centres unmarked) [Venlafaxine]
P-gp substrate status at the blood-brain barrier, earlier studies (P-gp [1]): substrates of P-gp at the blood-brain barrier | brain concentrations, times higher in the mutant mice compared to wild-type littermates (P-gp [3]): 1.7 times | cerebrum concentration, abcb1ab (−/−) (P-gp [3]): 456.32 ng/g or ml | kidney concentration, abcb1ab (−/−) (P-gp [3]): 1054.88 ng/g or ml | liver concentration, abcb1ab (−/−) (P-gp [3]): 323.22 ng/g or ml | lung concentration, abcb1ab (−/−) (P-gp [3]): 672.59 ng/g or ml | plasma concentration, abcb1ab (−/−) (P-gp [3]): 70.57 ng/g or ml | spleen concentration, abcb1ab (−/−) (P-gp [3]): 564.20 ng/g or ml | testes concentration, abcb1ab (−/−) (P-gp [3]): 842.61 ng/g or ml | penetration into the brain (organ/plasma concentration ratio), times higher in animals lacking P-gp than in control animals (P-gp [3]): 1.8 times | ratio (−/−)/(+/+), cerebrum (P-gp [3]): 1.7 | ratio (−/−)/(+/+), kidney (P-gp [3]): 1.0 | ratio (−/−)/(+/+), liver (P-gp [3]): 1.0 | ratio (−/−)/(+/+), lung (P-gp [3]): 0.9 | ratio (−/−)/(+/+), plasma (P-gp [3]): 1.0 | ratio (−/−)/(+/+), spleen (P-gp [3]): 1.0 | ratio (−/−)/(+/+), testes (P-gp [3]): 1.2 | differences in testes/plasma ratio between knockout and control (P-gp [3]): smaller but still significant differences | P-gp substrate status at the BBB (P-gp [3]; this study, administration over 11 days): substrates of P-gp at the BBB | cerebrum concentration, control (P-gp [3]): 261.14 ng/g or ml | kidney concentration, control (P-gp [3]): 1035.27 ng/g or ml | liver concentration, control (P-gp [3]): 314.59 ng/g or ml | lung concentration, control (P-gp [3]): 747.38 ng/g or ml | plasma concentration, control (P-gp [3]): 71.37 ng/g or ml | spleen concentration, control (P-gp [3]): 581.95 ng/g or ml | testes concentration, control (P-gp [3]): 715.92 ng/g or ml
